Earlier results in patent US20220184070A1, “LOW-DOSE TRIPLE COMBINATION FORMULATION” (The George Institute for Global Health, priority 2019, published 2022).
Marks after values point to notes of the source that are not given here.

Tested on: plasma glucose

## N[C@@H](CC(=O)N1CCn2c(nnc2C(F)(F)F)C1)Cc1cc(F)c(F)cc1F [Sitagliptin, sitagliptin]
Single dose 100 mg monotherapy, published studies
  Percentage change in plasma glucose from pre-prandial adjusted for placebo, at 2 h PPG: −6.3%
Single dose 100 mg, 180 min, FIG. 4
  Difference in mean 2 h post-prandial glucose (PPG) vs placebo: ~1 mmol/L
Single dose 100 mg, at 120 min post-dose (90 min post-meal), FIG. 4
  Maximum difference in plasma glucose between sitagliptin and placebo: 1.5 mmol/L
Single dose 100 mg, maximum achieved at 1.5 h post-prandial, published studies
  Percentage change in plasma glucose from pre-prandial adjusted for placebo, Maximum: −20.3^a %
Single dose 100 mg, post-dose (0.5 h post-meal), FIG. 4
  Time at which maximum PPG and serum insulin were achieved: ~1 h
